According to US20040110676A1, “Methods for modulating cell survival” (priority 2000, published 2004):

Legend:
[1] = test system: HBL-100 cells; assay: Anoikis assay on poly-HEMA coated plates, annexin-V-FITC/PI; assay type: cell-based, human
From the text: The human breast cell line HBL-100, transformed by the SV40 virus large T antigen with epithelial like morphology, was used to investigate the importance of the huntingtin serine residue at position 421 with respect to phosphorylation towards anoikis resistant, anchorage independent cell growth. HBL-100 cells were transfected with a 3949-15wt huntingtin vector construct, or a similar vector in which the normal serine at position 421 was mutated to an alanine residue. This mutation prevents phosphorylation from occurring at that site, which is presumed to be mediated by the kinase AKT/PKB. Cells were cultured in DMEM with 5% serum for 24 hours either on untreated tissue culture plastic or on poly-HEMA-coated plastic plates. Cells were harvested, counted and viability was assessed via annexin-V-FITC and propidium iodide (PI) staining.
HBL-100 cells were transiently transfected with a FLAG-tagged 3949-15wt htt, or a FLAG-tagged (S-A) unphosphorylatable mutant htt. Wild-type cells were also treated with LY294002, a specific PI-3 kinase inhibitor, at a concentration of 10 μM, to determine whether inhibition of kinase function could abrogate the induction of anoikis. Western blot analysis confirming the expression of both full length and 3949 huntingtin in the FLAG-tagged constructs (FIG. 26B). The presence of endogenous huntingtin in the parental cells is also shown. […]

[2] = target: AKT (Homo sapiens, UniProt P31749); assay: In vitro kinase reaction, phosphorylation of htt by AKT (autoradiography); assay type: biochemical; conditions: S421A-mutant N-terminal one-third of htt as substrate, compared with wild-type, purified recombinant active AKT
From the text: Serine 421 of huntingtin can be phosphorylated by purified recombinant active AKT in vitro (FIG. 18). Immunoprecipitated recombinant protein containing the N-terminal one-third of htt was used as a substrate for AKT. Phosphorylation was detected by autoradiography since radiolabelled ATP was a component of the in vitro kinase reaction. When serine 421 was mutated to alanine (S421A), a non-phosphorylatable amino acid, 64% of the phosphorylation signal on huntingtin was ablated. […] Other sites for AKT phosphorylation are threonines 1024 and 2068.

[3] = test system: spermatogenic cells; assay: Testicular histology, ultrastructure and TUNEL labeling; assay type: in vivo; conditions: endogenous htt expression increased to 100% of normal levels
Description: Testes were removed from anesthetized animals and immediately placed in fixative (1.5% paraformaldehyde, 1.5% glutaraldehyde, 0.1 M Na cacodylate, pH 7.3). The capsules were nicked with a scalpel and then the organs left to fix for approximately 1 hour. The testes were cut into small pieces and fixed for an additional hour. The pieces were washed with buffer, post-fixed in buffered 1% OSO4 on ice for 1 hour, washed with dH2O, and stained en bloc in 1% aqueous uranyl acetate. The samples were washed with dH2O, dehydrated through a graded concentration series of ethyl alcohols, and then embedded in JEMBED™812 (J. B. EM Services Inc., Point-Claire, Quebec).
For histological analysis, thick sections (1 μm) were stained with toluidine blue and evaluated on a Zeiss Axiophot microscope. For ultrastructural analysis, thin sections were cut on an ultramicrotome, stained with lead citrate and uranyl acetate, and then viewed and photographed on a Philips 300 electron microscope operated at 60 kV.
TUNEL™ labeling (Boehringer Mannheim) was performed using standard techniques on frozen sections of testes that were lightly immersion fixed in 3% paraformaldehyde. […]
The cellular effect of the htt expression was determined by analyzing the testicular morphology of YAC rescued htt knockout mice. […]
TUNEL™ staining was used to quantitate apoptosis in the YAC rescued transgenic mice. […]

[4] = test system: NT2 cells; assay: HIP-1-induced cell death, morphology scoring; assay type: cell-based, human; conditions: NT2 cells co-transfected with HIP-1, vs control protein PK, p<0.01
Description: HIP-1-induced toxicity was used to assess whether the C-terminus of htt confers protection against a toxic protein-mediated cell death, in addition to its effect on tamoxifen-induced death. NT2 cells were co-transfected with mutant HIP-1 and the C-terminus, or HIP-1 and the control pyruvate kinase cDNA, using lipofectamine (GibcoBRL). Cell death was measured by morphological changes using co-transfection of a plasmid containing the LacZ gene, as described herein. […] Thus, the protective activity of htt C-terminus may have a functional role in HIP-1-mediated cell death in vivo.

[5] = test system: HEK 293T cells; assay: MTT (WST-1) cell viability assay, tamoxifen-induced cell death; assay type: cell-based, human; conditions: transfected HEK 293T cells, tamoxifen 4 hours, compared with LacZ control
Description: The survival effect of htt was measured in vitro using the MTT assay, in which a reduction in mitochondrial viability is indicative of cell death. Human embryonic kidney (HEK) 293T cells were seeded at a density of 5×10^4 cells into 96-well plates and transfected with 0.1 μg htt or LacZ DNA using a standard calcium phosphate protocol (Hackam et al. (1998) J Cell Biol. 141: 1097-105). Transfected cells in 96-well plates were treated at 48 hours post-transfection with a various concentrations of tamoxifen, a cell permeable compound that leads to caspase activation and cell death, for 4 hours. Cell viability was measured, […], by incubating the cells for 2 hours in a 1:10 dilution of WST-1 reagent (Boehringer Mannheim) and release of formazan from mitochondria was quantified by the MTT assay at 450 nm using an ELISA plate reader (Dynatech Laboratories). Mock transfected, vector only and LacZ transfected cells served as controls for transfection-related toxicity. Statistical analyses of the cell death data were performed using one-way ANOVA and Newman-Keuls post-comparison tests.

[6] = test system: NT2 cells; assay: Mutant htt (HD138)-induced cell death, apoptotic morphology scoring; assay type: cell-based, human; conditions: NT2 cells co-transfected with HD138, tamoxifen stimulus, vs pyruvate kinase control, p=0.002
Description: Mutant htt protein (HD138) was co-transfected with control protein, pyruvate kinase (PK), or with htt C-terminus (C-ter) into NT2 cells (a human neuronal precursor cell line) at 40% density using lipofectamine (GibcoBRL), and cell death in response to tamoxifen stimulus was measured. Cell death was quantified in NT2 cells by co-transfection of the expression constructs with a plasmid containing the LacZ gene at a 4:1 ratio, and the cells were stained for β-galactosidase activity at 24 hours post-transfection using standard procedures. The survival effect of the htt protein was assessed by incubating transfected cells with the pro-apoptotic drug tamoxifen for 4 hrs at various concentrations. An apoptotic morphology was scored as blue-staining cells that were rounded up, blebbed and condensed, which were clearly distinguished from viable cells that were flat and had neurite-like extensions. The cell death data was analyzed for statistical significance using one-way ANOVA and Newman-Keuls post-comparison tests.

[7] = test system: truncated mutant htt with 128 CAG repeats in HEK 293T cells; assay: Mutant htt aggregate formation, immunofluorescence; assay type: cell-based, human; conditions: vs LacZ control
Description: The C-terminus of htt was co-transfected with mutant htt and aggregate formation was induced with tamoxifen or HIP-1 expression as described herein. HEK 293T cells were transfected with truncated mutant htt with 128 CAG repeats and processed for immunofluorescence by growing cells on glass coverslips and transfecting at 30% confluency using a standard calcium phosphate protocol. At 48 hours post-transfection, the cells were treated with 35 μM tamoxifen (Sigma) for 1 hour to induce aggregate formation, then processed for immunofluorescence. The cells were fixed in 4% paraformaldehyde/PBS, permeabilised in 0.5% Triton X-100/PBS for 5 min, then incubated with anti-htt antibody MAB2166 (Chemicon) (1:2500 dilution) diluted in 0.4% BSA/PBS. Secondary antibodies conjugated to FITC (Jackson Laboratories) were used at 1:600-1:800 dilutions, and DAPI (4′,6′-diamindino-2-phenylindole, Sigma) was used as a nuclear counter-stain. Appropriate control experiments were performed to determine the specificity of the antibodies, including secondary antibody only and mock transfected cells. The cells were viewed with a Zeiss (Axioscope) microscope, digitally captured with a CCD camera (Princeton Instrument Inc.) and the images were colourised and overlapped using the Eclipse (Empix Imaging Inc.) software program. […]

[8] = test system: immunoprecipitated recombinant protein containing the N-terminal one-third of htt
[9] = test system: recombinant N-terminal one-third of htt with serine 421 mutated to alanine (S421A)
recombinant N-terminal one-third of htt with serine 421 mutated to alanine (S421A), sequence (chain, as listed by the source S421A): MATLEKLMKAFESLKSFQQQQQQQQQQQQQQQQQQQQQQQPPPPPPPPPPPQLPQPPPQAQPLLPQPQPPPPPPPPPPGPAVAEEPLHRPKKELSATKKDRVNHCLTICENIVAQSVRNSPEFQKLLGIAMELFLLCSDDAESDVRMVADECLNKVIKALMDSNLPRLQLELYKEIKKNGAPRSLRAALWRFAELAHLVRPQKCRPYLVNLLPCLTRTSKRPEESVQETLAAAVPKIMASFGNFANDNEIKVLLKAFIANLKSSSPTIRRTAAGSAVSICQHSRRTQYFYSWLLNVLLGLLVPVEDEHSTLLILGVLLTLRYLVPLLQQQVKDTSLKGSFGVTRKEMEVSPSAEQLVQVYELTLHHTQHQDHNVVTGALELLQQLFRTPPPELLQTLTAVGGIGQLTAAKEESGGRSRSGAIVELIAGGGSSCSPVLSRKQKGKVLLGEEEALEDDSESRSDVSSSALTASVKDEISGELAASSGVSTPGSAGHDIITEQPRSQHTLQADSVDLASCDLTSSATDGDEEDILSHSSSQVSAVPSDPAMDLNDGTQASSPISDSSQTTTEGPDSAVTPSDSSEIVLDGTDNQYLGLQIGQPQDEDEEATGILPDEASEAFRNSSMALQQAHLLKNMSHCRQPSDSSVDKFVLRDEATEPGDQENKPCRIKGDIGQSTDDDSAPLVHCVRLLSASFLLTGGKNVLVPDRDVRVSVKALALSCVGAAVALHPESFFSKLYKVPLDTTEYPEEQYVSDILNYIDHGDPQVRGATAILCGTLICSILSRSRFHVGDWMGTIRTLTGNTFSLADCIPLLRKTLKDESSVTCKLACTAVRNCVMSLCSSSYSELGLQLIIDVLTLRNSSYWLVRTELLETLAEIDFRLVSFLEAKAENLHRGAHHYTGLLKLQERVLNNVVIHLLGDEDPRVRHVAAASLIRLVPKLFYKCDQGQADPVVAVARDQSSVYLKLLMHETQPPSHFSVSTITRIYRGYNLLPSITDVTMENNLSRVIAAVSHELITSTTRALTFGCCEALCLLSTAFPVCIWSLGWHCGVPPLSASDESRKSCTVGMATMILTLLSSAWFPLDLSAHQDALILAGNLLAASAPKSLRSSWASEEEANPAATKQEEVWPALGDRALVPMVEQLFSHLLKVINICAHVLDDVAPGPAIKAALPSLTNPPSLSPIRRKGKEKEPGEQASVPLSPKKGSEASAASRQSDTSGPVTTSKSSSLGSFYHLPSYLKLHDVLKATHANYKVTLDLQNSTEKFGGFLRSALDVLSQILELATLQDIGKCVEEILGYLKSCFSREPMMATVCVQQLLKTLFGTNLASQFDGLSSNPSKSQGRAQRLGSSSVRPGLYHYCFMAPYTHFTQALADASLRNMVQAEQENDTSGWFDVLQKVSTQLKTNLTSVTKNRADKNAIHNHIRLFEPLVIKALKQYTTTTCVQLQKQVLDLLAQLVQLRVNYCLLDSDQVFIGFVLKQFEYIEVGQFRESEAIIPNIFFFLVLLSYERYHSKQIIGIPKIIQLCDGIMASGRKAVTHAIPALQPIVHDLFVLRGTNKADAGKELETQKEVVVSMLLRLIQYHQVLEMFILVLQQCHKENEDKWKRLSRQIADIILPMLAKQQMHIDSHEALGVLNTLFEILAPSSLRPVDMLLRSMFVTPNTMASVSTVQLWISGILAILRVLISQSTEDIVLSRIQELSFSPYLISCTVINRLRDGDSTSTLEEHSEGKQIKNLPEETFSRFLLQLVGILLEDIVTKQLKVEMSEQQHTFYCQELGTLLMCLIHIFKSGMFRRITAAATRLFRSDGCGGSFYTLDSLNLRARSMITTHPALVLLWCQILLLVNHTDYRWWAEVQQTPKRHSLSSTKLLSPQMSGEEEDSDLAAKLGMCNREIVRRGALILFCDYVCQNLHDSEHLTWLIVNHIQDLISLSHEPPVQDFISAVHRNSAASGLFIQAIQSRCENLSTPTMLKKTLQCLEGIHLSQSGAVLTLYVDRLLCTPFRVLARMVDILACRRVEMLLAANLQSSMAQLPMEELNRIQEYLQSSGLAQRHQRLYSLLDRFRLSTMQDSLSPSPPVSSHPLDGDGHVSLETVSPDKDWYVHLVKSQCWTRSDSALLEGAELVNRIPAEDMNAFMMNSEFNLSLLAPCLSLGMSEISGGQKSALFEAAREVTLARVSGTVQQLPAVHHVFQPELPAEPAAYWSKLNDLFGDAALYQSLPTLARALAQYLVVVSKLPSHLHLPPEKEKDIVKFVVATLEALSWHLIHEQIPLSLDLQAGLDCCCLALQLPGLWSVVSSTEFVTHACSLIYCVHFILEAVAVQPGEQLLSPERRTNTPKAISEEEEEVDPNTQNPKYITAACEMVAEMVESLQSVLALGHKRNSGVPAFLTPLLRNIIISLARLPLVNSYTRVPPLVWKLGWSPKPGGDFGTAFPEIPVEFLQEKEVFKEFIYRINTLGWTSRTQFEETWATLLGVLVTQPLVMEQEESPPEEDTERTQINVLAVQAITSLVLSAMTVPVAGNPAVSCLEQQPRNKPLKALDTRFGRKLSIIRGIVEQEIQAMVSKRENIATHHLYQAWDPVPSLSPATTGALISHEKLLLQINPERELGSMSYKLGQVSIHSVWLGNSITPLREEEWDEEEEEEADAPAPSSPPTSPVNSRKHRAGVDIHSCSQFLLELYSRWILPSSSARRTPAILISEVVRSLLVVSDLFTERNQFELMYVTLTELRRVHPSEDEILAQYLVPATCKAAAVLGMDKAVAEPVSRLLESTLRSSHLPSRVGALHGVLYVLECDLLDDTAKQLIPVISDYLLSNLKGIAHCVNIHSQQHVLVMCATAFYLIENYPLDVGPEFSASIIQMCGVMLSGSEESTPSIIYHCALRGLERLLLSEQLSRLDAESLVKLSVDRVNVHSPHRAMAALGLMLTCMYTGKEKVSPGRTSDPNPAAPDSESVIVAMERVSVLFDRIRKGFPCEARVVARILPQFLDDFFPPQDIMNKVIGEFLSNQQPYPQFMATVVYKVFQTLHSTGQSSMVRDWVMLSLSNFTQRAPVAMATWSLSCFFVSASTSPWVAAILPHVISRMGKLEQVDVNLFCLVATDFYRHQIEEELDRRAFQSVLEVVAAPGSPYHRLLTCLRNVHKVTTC

immunoprecipitated recombinant protein containing the N-terminal one-third of htt, sequence (chain, as listed by the source): as the sequence (chain, as listed by the source S421A) above, with A421S counted along it
AKT, sequence (P31749 whole entry): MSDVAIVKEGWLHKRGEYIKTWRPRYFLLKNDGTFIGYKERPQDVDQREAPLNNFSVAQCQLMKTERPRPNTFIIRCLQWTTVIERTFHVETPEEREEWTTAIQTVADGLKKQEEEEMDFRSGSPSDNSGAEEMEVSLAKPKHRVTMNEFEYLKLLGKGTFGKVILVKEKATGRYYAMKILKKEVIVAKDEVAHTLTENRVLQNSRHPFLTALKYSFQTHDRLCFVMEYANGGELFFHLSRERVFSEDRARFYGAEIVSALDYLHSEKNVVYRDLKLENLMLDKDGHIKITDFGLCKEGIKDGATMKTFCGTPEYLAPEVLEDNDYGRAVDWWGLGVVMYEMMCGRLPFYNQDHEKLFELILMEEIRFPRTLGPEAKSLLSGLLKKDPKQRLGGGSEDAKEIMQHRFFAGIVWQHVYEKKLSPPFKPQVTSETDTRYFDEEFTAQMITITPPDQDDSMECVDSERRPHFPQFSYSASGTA

Substance: S421A: htt with serine 421 replaced by alanine, unphosphorylatable
- anoikis resistant growth in detached state (kinase inhibition study) ([1]; HBL-100 cells transiently transfected with FLAG-tagged constructs, LY294002 10 μM): grew poorly in a detached state
- anoikis resistance, growth attached or detached ([1]; transfected HBL-100 cells, 24 hours, poly-HEMA): behaved similarly to untransfected cells
- phosphorylation signal on huntingtin ablated [2]: 64%

Substance: endogenous htt: murine wild-type htt expressed from the Hdh gene
- effect on degenerative testicular phenotype of YAC72 mice [3]: completely rescued the degenerative testicular phenotype

Substance: htt C-terminus: C-terminal fragment of huntingtin, e.g. amino acids 585-3144 of SEQ ID NO: 1, expressed by transfection
- HIP-1 mediated cell death [4]: reduced HIP-1 mediated cell death
- tamoxifen-induced cell death (mitochondrial viability) [5]: protects HEK 293T cells from tamoxifen-induced cell death
- HD138-dependent cell death [6]: reduced HD138-dependent cell death
- number of aggregates formed by truncated mutant htt (1955-128) ([7]; aggregates induced by HIP-1 expression): reduces the number of aggregates
- number of aggregates formed by truncated mutant htt (1955-128) ([7]; aggregates induced by tamoxifen stimulus (35 μM, 1 hour)): reduces the number of aggregates

Substance: purified recombinant active AKT
- phosphorylation detected by autoradiography (in vitro kinase reaction with radiolabelled ATP) [8]: Serine 421 of huntingtin can be phosphorylated by purified recombinant active AKT in vitro
- phosphorylation signal ablated (autoradiography, in vitro kinase reaction) [9]: 64% of the phosphorylation signal on huntingtin was ablated
